One assay has as its system guinea pig trachea. Description: Passive Schultz-Dale reaction (relaxation of ovalbumin-induced contraction of passively sensitized trachea). More on the design: species or system male Hartley guinea pigs. Conditions: Cavia porcellus; concentration causing 50% relaxation; ovalbumin 1 μg/ml, cumulative addition; isolated trachea, 37° C. The procedure: Rabbit anti-OA serum prepared in advance by the method of Kohda, et al. [Folia Pharmacol. Japan, Vol. 66, p. 237 (1970)], was intraperitoneally administered to male Hartley guinea pigs weighing 350-500 g for passive sensitization, and 24 hours later tracheas of the animals were removed, and used for the following test. The tracheas were cut into zig-zag strips by the method of Emmerson and Mackay [J. Pharm. Pharmacol., Vol. 31, p.798 (1979)], were suspended in Krebs-Hensleit solution at 37° C. under aeration of a gas mixture of 95% oxygen and 5% carbon dioxide, and equilibrated for about 1 hour. The antigen, ovalbumin, was added to a bath (final concentration; 1 μg/ml). The contraction was recorded using an isotonic transducers (TD-112S; Nihon Koden Kogyo Co.) connected to a recorder (TYPE 3066; Yokogawa Hokushin Electric). Following the contraction curves reached a plateau, a test compound was cumulatively added in order to calculate the concentration causing 50% relaxation (IC50) which was determined from least-squares regression analysis.

The subject of assay [1] is plaque-forming cells (PFC). The assay is described as follows: Inhibiting effect on plaque-forming cells (PFC). To be noted: 120 h; concentration: 10^-5 M; mouse spleen cells, 5 days culture; read-out: PFC inhibition rate (%). The format is cell-based, Balb/c strain male mice. From the text: The method devised by Jerne, et al. [Science, Vol. 140, p.405 (1963)] was followed while referring to the method of Yamamoto, et al. [Drugs Exptl. Clin. Res., Vol. 8, p.5 (1982)]. That is, Balb/c strain male mice (7-week-old/SLC) were sensitized with 1×10^8 sheep erythrocytes (manufactured by Bio Test Research Institute), and the spleen was extirpated on the 6th or 7th day. The erythrocytes were removed using ACT solution [Tris (hydroxymethyl) aminomethane-NH4 Cl solution] from the spleen cells, and were washed with RPMI-1640 medium (manufactured by Nissui Seiyaku Co.) three times. Suspensions of the obtained cells (1×10^7) and the sheep erythrocytes (5×10^6) were suspended with RPMI-1640 medium containing the test compound, 2-mercaptoethanol (5×10^-5 M), 10% bovine fetal serum (manufactured by Gibco Co.), streptomycin and penicillin. The obtained cell suspension was distributed into a 24-well microculture plate, and cultured in a carbon dioxide gas incubator at 37° C. for 5 days.
After the completion of culturing, the cells were transferred to a plastic test tube. They are centrifuged at 2000 rpm and the supernatant was removed. Then, the cells were further suspended in 1 ml of RPMI-1640. The cell suspension was charged, together with the sheep erythrocytes and the guinea pig complements, into a Cunningham chamber (manufactured by Takahashi Giken Co.), by the method of Cunningham, et al. [Immunology, Vol. 14, p.599 (1968)]. The cells were incubated at 37° C. for 1-2 hours, and then a direct PFC count was determined.

Molecules are shown by their SMILES.

As a reminder, the IC50 is the concentration needed to halve the response being measured. What is called inhibition is the drop in the measured response relative to a control, in per cent.

As to `CCCCn1c(=O)c2[nH]cnc2c2sccc21` [Compound 1, 5-n-butylthieno[3,2-b]-3H-imidazo[4,5-d]pyridine-4(5H)-one], the concentration for half-maximal inhibition (IC50) in the assay with guinea pig trachea turned out to be 4.63 µM. The inhibition at 10 µM in assay [1] came out at 39.3%.
As to `CCCCn1c(=O)c2c(ncn2C)c2sccc21` [Compound 2, 5-n-butyl-3-methylthieno[3,2-b]-3H-imidazo[4,5-d]pyridine-4(5H)-one], the IC50 in the assay on guinea pig trachea amounted to 12.2 µM. In addition, the inhibition at 10 µM in assay [1] came out at 43.3%.
With `CCCCn1c(=O)c2c(ncn2Cc2ccccc2)c2sccc21` [Compound 3, 3-benzyl-5-n-butylthieno [3,2-b]-3H-imidazo [4,5-d]pyridine-4 (5H)-one], the inhibition at 10 µM in assay [1] worked out at 92.4%.
For the compound `CC(C)n1c(=O)c2[nH]cnc2c2sccc21` [Compound 6, 5-isopropylthieno [3,2-b]-3H-imidazo [4,5-d]pyridine-4 (5H)-one], the half-inhibitory concentration (IC50) in the assay with guinea pig trachea was 2.67 µM. For the same compound, the inhibition at 10 µM in assay [1] came to 8.8%.
Turning to `CC(C)n1c(=O)c2c(ncn2C)c2sccc21` [Compound 7, 5-isopropyl-3-methylthieno[3,2-b]-3H-imidazo[4,5-d]pyridine-4(5H)-one], in the assay with guinea pig trachea, the IC50 was determined as 3.53 µM. Also, the inhibition at 10 µM in assay [1] turned out to be 29.5%.
Consider `CC(C)n1c(=O)c2ncn(C)c2c2sccc21` [Compound 9, 5-isopropyl-1-methylthieno[3,2-b]-1H-imidazo[4,5-d]pyridine-4(5H)-one], for which the half-inhibitory concentration (IC50) with guinea pig trachea was 7.29 µM. Moreover, the inhibition at 10 µM in assay [1] came to 23.8%.
On to `CCCn1c(=O)c2[nH]cnc2c2sccc21` [Compound 11, 5-n-propylthieno [3,2-b]-3H-imidazo [4,5-d]pyridine-4(5H)-one], for which the IC50 in the assay on guinea pig trachea was found to be 0.922 µM.
With `CCCn1c(=O)c2c(ncn2C)c2sccc21` [Compound 12, 3-methyl-5-n-propylthieno [3,2-b]-3H-imidazo [4,5-d]pyridine-4(5H)-one], the IC50 with guinea pig trachea worked out at 2.95 µM. Moreover, the inhibition at 10 µM in assay [1] amounted to 60.4%.
`CCCn1c(=O)c2c(ncn2Cc2ccccc2)c2sccc21` [Compound 13, 3-benzyl-5-n-propylthieno [3,2-b]-3H-imidazo [4,5-d]pyridine-4(5H)-one]: in assay [1], the inhibition at 10 µM was 68.3%.
Consider `CCCn1c(=O)c2ncn(C)c2c2sccc21` [Compound 14, 1-methyl-5-n-propylthieno [3,2-b]-1H-imidazo [4,5-d]pyridine-4 (5H)-one], for which, in the assay with guinea pig trachea, the half-maximal inhibitory concentration (IC50) is 6.56 µM.
As for `CCn1c(=O)c2[nH]cnc2c2sccc21` [Compound 16, 5-ethylthieno[3,2-b]-3H-imidazo[4,5-d]pyridine-4(5H)one], in the assay with guinea pig trachea, the IC50 is 0.657 µM. Further, the inhibition at 10 µM in assay [1] came to 83.1%.
Take `CCn1c(=O)c2c(ncn2C)c2sccc21` [Compound 17, 5-ethyl-3-methylthieno[3,2-b]-3H-imidazo[4,5-d]pyridine-4 (5H)-one]: the IC50 in the assay on guinea pig trachea came to 10.5 µM. For the same compound, in assay [1], the inhibition at 10 µM turned out to be 47%.
With `CCn1c(=O)c2ncn(C)c2c2sccc21` [Compound 19, 5-ethyl-1-methylthieno [3,2-b]-1H-imidazo [4,5-d]pyridine-4 (5H)-one], the IC50 with guinea pig trachea came to 9.98 µM.
As to `CCn1c(=O)c2ncn(Cc3ccccc3)c2c2sccc21` [Compound 20, 1-benzyl-5-ethylthieno [3,2-b]-1H-imidazo [4,5-d]pyridine-4 (5H)-one], in the assay on guinea pig trachea, the IC50 was found to be 3.41 µM.
For the compound `CCCCn1c(=O)c2[nH]cnc2c2ccsc21` [Compound 31, 5-n-butylthieno [2,3-b]-3H-imidazo [4,5-d]pyridine-4 (5H) one], the IC50 in the assay on guinea pig trachea turned out to be 0.416 µM. In addition, the inhibition at 10 µM in assay [1] was -10.9%.
For `CCCCn1c(=O)c2c(ncn2C)c2ccsc21` [Compound 32, 5-n-butyl-3-methylthieno [2,3-b]-3H-imidazo [4,5-d]pyridine-4 (5H)-one], in that order: 0.854 µM and 16.5%.
On to `CCCCn1c(=O)c2c(ncn2Cc2ccccc2)c2ccsc21` [Compound 33, 3-benzyl-5-n-butylthieno [2,3-b]-3H-imidazo [4,5-d]pyridine-4 (5H)-one], for which, in the assay with guinea pig trachea, the IC50 was found to be 36.9 µM. For the same compound, the inhibition at 10 µM in assay [1] was determined as 94.8%.
Regarding `CCCCn1c(=O)c2ncn(C)c2c2ccsc21` [Compound 34, 5-n-butyl-1-methylthieno [2,3-b]-1H-imidazo [4,5-d]pyridine-4 (5H)-one], the concentration for half-maximal inhibition (IC50) in the assay with guinea pig trachea turned out to be 8.98 µM. Besides, the inhibition at 10 µM in assay [1] is -16.5%.
For `CCCCn1c(=O)c2ncn(Cc3ccccc3)c2c2ccsc21` [Compound 35, 1-benzyl-5-n-butylthieno [2,3-b]-1H-imidazo [4,5-d]pyridine-4 (5H)-one], in that order: 6.06 µM and -3.8%.
In the case of `CCCn1c(=O)c2ncn(Cc3ccccc3)c2c2ccsc21` [Compound 39, 1-benzyl-5-n-propylthieno [2,3-b]-1H-imidazo [4,5-d]pyridine-4 (5H)-one], the IC50 with guinea pig trachea was 2.39 µM.

These data come from patent US5342843A, “Thienoimidazoppyridone derivatives” (Kyowa Hakko Kogyo Co., Ltd., priority 1991, dated 1994).
